Assay results taken from ChEMBL document CHEMBL1143892, “Oligo(tyrosine sulfate)s as heparin pentasaccharide mimic: evaluation by surface noncovalent affinity mass spectrometry” (2008).
Non-standard residues stand in square brackets, D forms with d. Residues, ends and D or L forms follow the SMILES beside them. *: point of attachment. X1 = O=C([C@H](Cc1ccc(OS(=O)(=O)O)cc1)NS(=O)(=O)O)*; sY = N[C@@H](Cc1ccc(OS(=O)(=O)O)cc1)C(=O)O

Assays:
Type in all cases: functional
Plasma [1] = test: Anticoagulant activity in human plasma assessed as activated partial thromboplastin time at 0.3 mg/ml after 15 mins
Plasma [2] = test: Anticoagulant activity in human plasma assessed as activated partial thromboplastin time at 1 mg/ml after 15 mins
Plasma [3] = test: Anticoagulant activity in human plasma assessed as activated partial thromboplastin time at 0.01 mg/ml after 15 mins
Plasma [4] = test: Anticoagulant activity in human plasma assessed as activated partial thromboplastin time at 0.03 mg/ml after 15 mins
Plasma [5] = test: Anticoagulant activity in human plasma assessed as activated partial thromboplastin time at 0.1 mg/ml after 15 mins

Row | SMILES | APTT (Plasma [1]) [s] | APTT (Plasma [2]) [s] | APTT (Plasma [3]) [s] | APTT (Plasma [4]) [s] | APTT (Plasma [5]) [s]
1 | O=C(O)[C@H](Cc1ccc(OS(=O)(=O)[O-])cc1)NC(=O)[C@H](Cc1ccc(OS(=O)(=O)[O-])cc1)NC(=O)[C@H](Cc1ccc(OS(=O)(=O)[O-])cc1)NC(=O)[C@H](Cc1ccc(OS(=O)(=O)[O-])cc1)NC(=O)[C@H](Cc1ccc(OS(=O)(=O)[O-])cc1)NC(=O)[C@H](Cc1ccc(OS(=O)(=O)[O-])cc1)NS(=O)(=O)[O-].[Na+].[Na+].[Na+].[Na+].[Na+].[Na+].[Na+] (X1-[sY][sY][sY][sY][sY]-OH) | 35.7 | 64.8 | 30.8 | 31.2 | 32.3
2 | O=C([O-])[C@H](Cc1ccc(OS(=O)(=O)[O-])cc1)NC(=O)[C@H](Cc1ccc(OS(=O)(=O)[O-])cc1)NC(=O)[C@H](Cc1ccc(OS(=O)(=O)[O-])cc1)NC(=O)[C@H](Cc1ccc(OS(=O)(=O)[O-])cc1)NC(=O)[C@H](Cc1ccc(OS(=O)(=O)[O-])cc1)NC(=O)[C@H](Cc1ccc(OS(=O)(=O)[O-])cc1)NC(=O)[C@H](Cc1ccc(OS(=O)(=O)[O-])cc1)NC(=O)[C@H](Cc1ccc(OS(=O)(=O)[O-])cc1)NC(=O)[C@H](Cc1ccc(OS(=O)(=O)[O-])cc1)NC(=O)[C@H](Cc1ccc(OS(=O)(=O)[O-])cc1)NC(=O)[C@H](Cc1ccc(OS(=O)(=O)[O-])cc1)NC(=O)[C@H](Cc1ccc(OS(=O)(=O)[O-])cc1)NS(=O)(=O)[O-].[Na+].[Na+].[Na+].[Na+].[Na+].[Na+].[Na+].[Na+].[Na+].[Na+].[Na+].[Na+].[Na+].[Na+] (X1-[sY][sY][sY][sY][sY][sY][sY][sY][sY][sY][sY]-OH) | 75.7 | 172.1 | 32 | 37.6 | 50.3
3 | N[C@@H](Cc1ccc(OS(=O)(=O)[O-])cc1)C(=O)N[C@@H](Cc1ccc(OS(=O)(=O)[O-])cc1)C(=O)N[C@@H](Cc1ccc(OS(=O)(=O)[O-])cc1)C(=O)N[C@@H](Cc1ccc(OS(=O)(=O)[O-])cc1)C(=O)N[C@@H](Cc1ccc(OS(=O)(=O)[O-])cc1)C(=O)N[C@@H](Cc1ccc(OS(=O)(=O)[O-])cc1)C(=O)N[C@@H](Cc1ccc(OS(=O)(=O)[O-])cc1)C(=O)O.[Na+].[Na+].[Na+].[Na+].[Na+].[Na+].[Na+] (H-[sY][sY][sY][sY][sY][sY][sY]-OH) | 32.4 | 40.6 | 30.4 | 30.5 | 31
4 | N[C@@H](Cc1ccc(OS(=O)(=O)[O-])cc1)C(=O)N[C@@H](Cc1ccc(OS(=O)(=O)[O-])cc1)C(=O)N[C@@H](Cc1ccc(OS(=O)(=O)[O-])cc1)C(=O)N[C@@H](Cc1ccc(OS(=O)(=O)[O-])cc1)C(=O)N[C@@H](Cc1ccc(OS(=O)(=O)[O-])cc1)C(=O)N[C@@H](Cc1ccc(OS(=O)(=O)[O-])cc1)C(=O)N[C@@H](Cc1ccc(OS(=O)(=O)[O-])cc1)C(=O)N[C@@H](Cc1ccc(OS(=O)(=O)[O-])cc1)C(=O)N[C@@H](Cc1ccc(OS(=O)(=O)[O-])cc1)C(=O)N[C@@H](Cc1ccc(OS(=O)(=O)[O-])cc1)C(=O)O.[Na+].[Na+].[Na+].[Na+].[Na+].[Na+].[Na+].[Na+].[Na+].[Na+] (H-[sY][sY][sY][sY][sY][sY][sY][sY][sY][sY]-OH) | 90.5 | 153.7 | 30.6 | 32.1 | 41
5 | O=C(O)[C@H](Cc1ccc(OS(=O)(=O)[O-])cc1)NC(=O)[C@H](Cc1ccc(OS(=O)(=O)[O-])cc1)NC(=O)[C@H](Cc1ccc(OS(=O)(=O)[O-])cc1)NC(=O)[C@H](Cc1ccc(OS(=O)(=O)[O-])cc1)NC(=O)[C@H](Cc1ccc(OS(=O)(=O)[O-])cc1)NC(=O)[C@H](Cc1ccc(OS(=O)(=O)[O-])cc1)NC(=O)[C@H](Cc1ccc(OS(=O)(=O)[O-])cc1)NC(=O)[C@H](Cc1ccc(OS(=O)(=O)[O-])cc1)NC(=O)[C@H](Cc1ccc(OS(=O)(=O)[O-])cc1)NS(=O)(=O)[O-].[Na+].[Na+].[Na+].[Na+].[Na+].[Na+].[Na+].[Na+].[Na+].[Na+] (X1-[sY][sY][sY][sY][sY][sY][sY][sY]-OH) | 45.7 | 95.8 | 31.9 | 33.1 | 36.5
